In US6906073B2, “Piperazine CCR-3 receptor antagonists” (Roche Palo Alto LLC, priority 2001, dated 2005):
Structures can show the parent of a compound that is named as a salt.

Assays:
CCR-3 receptor = molecular target: T1, CCR-3 receptor (Homo sapiens, UniProt P51677); test: CCR-3 Receptor Binding Assay - In Vitro (inhibition of 125I eotaxin binding to CCR-3 L1.2 transfectant cells); details: inhibition of binding of 125I eotaxin to CCR-3 L1.2 transfectant cells, 1 hour at room temperature
T1 construct: expressed in transfected cells; host or cells: L1.2 (murine pre-B lymphoma line)
T1 sequence (P51677 1-355): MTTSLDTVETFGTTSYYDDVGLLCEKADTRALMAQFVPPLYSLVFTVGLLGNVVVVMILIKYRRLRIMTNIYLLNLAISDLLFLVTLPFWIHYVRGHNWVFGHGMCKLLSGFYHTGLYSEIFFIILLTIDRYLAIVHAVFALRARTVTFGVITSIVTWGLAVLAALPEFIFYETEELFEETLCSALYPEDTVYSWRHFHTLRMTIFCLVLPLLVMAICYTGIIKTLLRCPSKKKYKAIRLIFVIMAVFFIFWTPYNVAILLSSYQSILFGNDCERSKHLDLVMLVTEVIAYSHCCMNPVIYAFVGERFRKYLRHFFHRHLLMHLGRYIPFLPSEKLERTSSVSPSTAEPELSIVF
Description: CCR-3 Receptor Binding Assay—In Vitro
The CCR-3 antagonistic activity of the compounds of the invention was determined by their ability to inhibit the binding of ^125I eotaxin to CCR-3 L1.2 transfectant cells (see Ponath, P. D. et al., J. Exp. Med., Vol. 183, 2437-2448, (1996)).
The assay was performed in Costar 96-well polypropylene round bottom plates. Test compounds were dissolved in DMSO and then diluted with binding buffer (50 mM HEPES, 1 mM CaCl2, 5 mM MgCl2, 0.5% bovine serum albumin (BSA), 0.02% sodium azide, pH 7.24) such that the final DMSO concentration was 2%. 25 μl of the test solution or only buffer with DMSO (control samples) was added to each well, followed by the addition of 25 μl of ^125I-eotaxin ([…]) (NEX314, New England Nuclear, Boston, Mass.) and 1.5×10^5 of the CCR-3 L1.2 transfected cells in 25 μl binding buffer. The final reaction volume was 75 μl.
After incubating the reaction mixture for 1 hour at room temperature, the reaction was terminated by filtering the reaction mixture through polyethylenimine treated Packard Unifilter GF/C filter plate (Packard, Chicago, Ill.). The filters were washed four times with ice cold wash buffer containing 10 mm HEPES and 0.5M sodium chloride (pH 7.2) and dried at 65° C. for approximately 10 minutes. 25 μl/well of Microscint-20® scintillation fluid (Packard) was added and the radioactivity retained on the filters was determined by using the Packard TopCount®

COc1cc(NC(=O)N[C@@H]2COC[C@H]2N2CCN(Cc3ccc(Cl)cc3)CC2)cc(OC)c1OC (racemic) (as salt: hydrochloride) [compound 7, (±)-trans-1-{4-[4-(4-chlorobenzyl)-piperazin-1-yl]-tetrahydrofuran-3-yl}-3-(3,4,5-trimethoxyphenyl)urea dihydrochloride]
melting point: 190.8 to 204.3 °C

COc1cc(NC(=O)N[C@@H]2COC[C@H]2N2CCN(Cc3ccc(Cl)cc3)CC2)cc(OC)c1OC (racemic) [compound 7, (±)-trans-1-{4-[4-(4-chlorobenzyl)-piperazin-1-yl]-tetrahydrofuran-3-yl}-3-(3,4,5-trimethoxyphenyl)urea dihydrochloride]
IC50 (CCR-3 receptor): 0.11 µM

O=C(Cc1cccs1)Nc1ccccc1N1CCN(Cc2ccc(Cl)c(Cl)c2)CC1 [compound 1, N-{2-[4-(3,4-dichloro-benzyl)-piperazin-1-yl]-phenyl}-2-thiophen-2-yl-acetamide]
IC50 (CCR-3 receptor): 200 µM

O=C(Nc1ccccc1N1CCN(Cc2ccc(Cl)c(Cl)c2)CC1)c1ccc(F)c(F)c1 [compound 2, N-{2-[4-(3,4-dichlorobenzyl)-piperazin-1-yl]-phenyl}-3,4-difluoro-benzamide]
IC50 (CCR-3 receptor): 36 µM

Cc1ccc(C(=O)NC2CCCCC2N2CCN(Cc3ccc(Cl)c(Cl)c3)CC2)cc1 (centres unmarked) [compound 3, N-{2-[4-(3,4-Dichloro-benzyl)-piperazin-1-yl]-cyclohexyl}-4-methyl-benzamide]
IC50 (CCR-3 receptor): 12.8 µM
